Patent US6197963A, “Non-peptide peptidomimetics” (The Trustees of the University of Pennsylvania, priority 1998, dated 2001)
pIC50, pKi: −log10 of the molar value. “Also recorded” adds a separate entry of the source. Read-outs that look alike come from different tables or passages of the source.

Legend:
[1] = molecular target: hSSTR5 (Homo sapiens, UniProt P35346); assay: Binding at human SRIF receptor subtype hSSTR5; conditions: for pKi: TABLE 3, read-out: hSSTR 5 Ki
[2] = molecular target: hSSTR3 (Homo sapiens, UniProt P32745); assay: Binding at human SRIF receptor subtype hSSTR3
[3] = molecular target: hSSTR4 (Homo sapiens, UniProt P31391); assay: Binding at human SRIF receptor subtype hSSTR4
[4] = molecular target: hSSTR1 (Homo sapiens, UniProt P30872); assay: Binding at human SRIF receptor subtype hSSTR1
[5] = molecular target: hSSTR2 (Homo sapiens, UniProt P30874); assay: Binding at human SRIF receptor subtype hSSTR2
[6] = molecular target: NK-1 receptor (Homo sapiens, UniProt P25103); assay: Binding at the NK-1 receptor (Examples 109-110)
[7] = tested on: SRIF receptors on AtT-20 cells; assay: Binding at SRIF receptors of AtT-20 cells (Examples 104-110, Tables 1-3); set-up: species or system mouse; key to AtT-20 cells IC50: DNB: Did Not Bind
[8] = molecular target: five hSSTRs; assay: Profile / average over the five human SRIF receptor subtypes; assay type: binding
[9] = tested on: SRIF receptor; assay: Displacement of 125I-CGP-23996 from SRIF receptor on AtT-20 cells (Example 13); assay type: binding, mouse; conditions: displacement of 125I-CGP-23996, AtT-20 cells (Example 13)
[10] = molecular target: T1, human neurokinin-1 receptor (NK1R) (Homo sapiens, UniProt P25103); assay: Displacement of 125I-substance P from human NK1R expressed in COS cells (Example 12); assay type: binding; conditions: 125I-substance P, COS cells (Example 12)
T1 construct: expressed in transfected cells; host or cells: COS cells
Protocol: The affinity of a variety of compounds for the substance P receptor was determined employing the following procedure.
To express the cloned human neurokinin-1 receptor (NK1R) transiently in COS, the cDNA for the human NK1R was cloned into the expression vector pCDM9 which was derived from pCDM8 (Invitrogen) by inserting the ampicillin resistance gene (nucleotide 1973 to 2964 from Bluescript SK+) into the Sac II site. Transfection of 20 μg of the plasmid DNA into 10 million COS cells was achieved by electroporation in 800 μl of the transfection buffer ([…], 1.2 mM MgCl2, 2.4 mM K2 HPO4, 0.6 mM KH2PO4, […], 10 mM HEPES pH 7.4) at 260 V and 950 μF using the IBI Genezapper (IBI, New Haven, Conn.). The cells were incubated in 10% fetal calf serum, 2 mM glutamine, 100 U/ml penicillin-streptomycin, and 90% DMEM media (Gibco, Grand Island, N.Y.) in 5% CO2 at 37° C. for three days before the binding assay.
The binding assay of human NK1R expressed in COS cells is based on the use of ^125 I-substance P (^125 I-SP, from DuPont, Boston, Mass.) as a radioactively labeled ligand which competes with unlabeled substance P or any other ligand for binding to the human NK1R. Monolayer cell cultures of COS were dissociated by the non-enzymatic solution (Specialty Media, Lavallette, N.J.) and resuspended in appropriate volume of the bind buffer (50 mM Tris pH 7.5, 5 mM MnCl2, 150 mM NaCl, 0.04 mg/ml bacitracin, 0.004 mg/ml leupeptin, 0.2 mg/ml BSA, 0.01 mM phosphoramidon) such that 200 μl of the cell suspension would give rise to about 10,000 cpm of specific ^125 I-SP binding (approximately 50,000 to 200,000 cells). In the binding assay, 200 μl of cells were added to a tube containing 20 μl of 1.5 to 2.5 nM of ^125 I-SP and 20 μl of unlabeled substance P or any other test compound. The tubes were incubated at 4° C. or at room temperature for 1 hour with gentle shaking. The bound radioactivity was separated from unbound radioactivity by GF/C filter (Brandel, Gaithersburg, Md.) which was pre-wetted with 0.1 polyethylenimine. The filter was washed with 3 ml of wash buffer (50 Tris pH 7.5, 5 mM MnCl2, 150 mM NaCl) three times and its radioactivity was determined by gamma counter.
A variety of compounds were tested according to the COS cell procedure. The concentration of compound required to inhibit the binding of substance P to the human neurokinin-1 receptor by 50% was measured.

[11] = TABLE 1 (Example 105), read-out: AtT-20 cells 50 IC
[12] = read-out: IC50 at AtT-20 cell membranes
[13] = read-out: IC50 at the NK-1 receptor
[14] = TABLE 3 (Example 108), read-out: AtT-20 IC50

hSSTR5, sequence (P35346 whole entry): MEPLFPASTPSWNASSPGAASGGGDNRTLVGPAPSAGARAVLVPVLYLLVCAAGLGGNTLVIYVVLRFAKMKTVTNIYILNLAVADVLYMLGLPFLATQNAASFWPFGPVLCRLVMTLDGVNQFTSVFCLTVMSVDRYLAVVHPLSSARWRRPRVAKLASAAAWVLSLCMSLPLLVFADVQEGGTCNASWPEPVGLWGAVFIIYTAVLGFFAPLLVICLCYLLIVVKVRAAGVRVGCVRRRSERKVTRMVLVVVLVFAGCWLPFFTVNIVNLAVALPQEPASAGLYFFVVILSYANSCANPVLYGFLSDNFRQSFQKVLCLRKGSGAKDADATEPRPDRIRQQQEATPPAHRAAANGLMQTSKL
hSSTR4, sequence (P31391 whole entry): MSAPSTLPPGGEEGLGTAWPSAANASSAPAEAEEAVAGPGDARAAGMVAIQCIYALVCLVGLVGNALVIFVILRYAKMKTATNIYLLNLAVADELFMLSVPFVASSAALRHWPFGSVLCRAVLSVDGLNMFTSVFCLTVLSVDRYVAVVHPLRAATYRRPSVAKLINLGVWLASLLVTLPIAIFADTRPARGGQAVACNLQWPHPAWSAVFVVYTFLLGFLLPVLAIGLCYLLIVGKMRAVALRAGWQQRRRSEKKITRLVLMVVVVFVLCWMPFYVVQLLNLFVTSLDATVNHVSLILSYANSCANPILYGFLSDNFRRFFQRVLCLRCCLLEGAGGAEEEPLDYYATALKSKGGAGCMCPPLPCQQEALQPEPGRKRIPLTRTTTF
hSSTR3, sequence (P32745 whole entry): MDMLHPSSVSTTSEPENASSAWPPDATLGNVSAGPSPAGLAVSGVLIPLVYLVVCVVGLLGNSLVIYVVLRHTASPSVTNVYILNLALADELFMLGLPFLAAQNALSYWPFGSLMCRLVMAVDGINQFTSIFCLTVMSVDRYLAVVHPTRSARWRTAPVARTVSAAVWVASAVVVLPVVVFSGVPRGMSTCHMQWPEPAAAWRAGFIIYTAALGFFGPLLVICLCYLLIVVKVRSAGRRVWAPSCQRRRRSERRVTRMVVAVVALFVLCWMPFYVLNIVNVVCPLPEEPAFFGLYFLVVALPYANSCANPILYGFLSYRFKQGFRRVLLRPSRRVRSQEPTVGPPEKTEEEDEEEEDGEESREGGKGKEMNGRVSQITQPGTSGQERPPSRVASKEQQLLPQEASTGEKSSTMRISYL
hSSTR2, sequence (P30874 whole entry): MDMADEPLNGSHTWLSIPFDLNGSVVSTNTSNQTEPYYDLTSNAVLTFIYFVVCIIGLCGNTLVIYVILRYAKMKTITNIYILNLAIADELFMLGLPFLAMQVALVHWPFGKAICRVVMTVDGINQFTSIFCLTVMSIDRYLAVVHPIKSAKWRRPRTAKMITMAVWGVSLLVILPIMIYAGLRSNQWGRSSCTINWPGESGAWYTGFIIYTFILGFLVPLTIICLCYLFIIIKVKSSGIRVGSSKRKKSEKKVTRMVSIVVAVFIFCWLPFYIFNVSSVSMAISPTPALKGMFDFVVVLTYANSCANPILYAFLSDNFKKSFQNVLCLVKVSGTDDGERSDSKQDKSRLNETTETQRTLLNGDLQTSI
hSSTR1, sequence (P30872 whole entry): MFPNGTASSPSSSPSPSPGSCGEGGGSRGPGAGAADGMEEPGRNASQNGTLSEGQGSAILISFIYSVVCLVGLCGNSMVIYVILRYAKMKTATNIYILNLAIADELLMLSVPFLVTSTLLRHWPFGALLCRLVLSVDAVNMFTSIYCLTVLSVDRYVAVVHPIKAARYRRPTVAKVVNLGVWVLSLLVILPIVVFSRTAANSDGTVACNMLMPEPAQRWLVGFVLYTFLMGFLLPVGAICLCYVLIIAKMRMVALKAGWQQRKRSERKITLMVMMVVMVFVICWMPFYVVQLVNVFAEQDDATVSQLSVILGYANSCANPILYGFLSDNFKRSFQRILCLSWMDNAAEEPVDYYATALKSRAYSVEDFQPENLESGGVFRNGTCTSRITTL
NK-1 receptor, sequence (P25103 whole entry): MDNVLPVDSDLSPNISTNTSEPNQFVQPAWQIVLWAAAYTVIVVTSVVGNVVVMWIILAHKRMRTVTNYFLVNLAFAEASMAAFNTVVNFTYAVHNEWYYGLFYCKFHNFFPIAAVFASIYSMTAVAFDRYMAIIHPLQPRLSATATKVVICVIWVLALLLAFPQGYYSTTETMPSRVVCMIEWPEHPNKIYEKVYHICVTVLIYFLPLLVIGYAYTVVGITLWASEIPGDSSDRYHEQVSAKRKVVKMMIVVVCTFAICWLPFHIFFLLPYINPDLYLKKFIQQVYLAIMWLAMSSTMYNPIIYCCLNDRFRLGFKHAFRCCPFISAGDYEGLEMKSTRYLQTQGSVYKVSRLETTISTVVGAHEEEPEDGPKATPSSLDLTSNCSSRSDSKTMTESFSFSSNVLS
T1 sequence (P25103 whole entry): as above

NCCCCCOC[C@@H]1O[C@H](OCCc2c[nH]c3ccccc23)[C@H](OCc2c[nH]cn2)[C@H](OCc2ccccc2)[C@H]1OCc1ccccc1 [IV-72, 2-(1H-indol-3-yl)ethyl 2-O-(4'-methylene-1H-imidazole)-3,4-di-O-benzyl-6-O-(5'-amino-pentyl)-β-L-mannopyranoside] was tested, and the “binding of SSTR5” value [1] was “failed to bind SSTR5”, the pKi [1] was less than 5.00 and the pKi ([2]; TABLE 3, read-out: hSSTR 3 Ki) was 6.05. The pKi ([2]; read-out: Ki at SSTR 3) was 6.05, the pKi ([3]; TABLE 3, read-out: hSSTR 4 Ki) was 7.00 and the pKi ([3]; read-out: Ki at SSTR 4) was 7.00. It also gave a pKi ([4]; TABLE 3, read-out: hSSTR 1 Ki) of 6.52, a pKi ([4]; read-out: Ki at SSTR 1) of 6.52 and a pKi ([5]; TABLE 3, read-out: hSSTR 2 Ki) of 6.10. It also gave a pKi ([5]; read-out: Ki at SSTR 2) of 6.10.
CC(=O)NCCCCCOC[C@H]1O[C@@H](OCCc2c[nH]c3ccccc23)[C@H](OCc2ccccc2)[C@@H](OCc2ccccc2)[C@@H]1O [IV-99, (-)-2-(1H-indol-3-yl)ethyl-6-O-(N-acetyl-5-aminopentyl)-2,3-di-O-benzyl-β-D-glucopyranoside] gave a pIC50 ([6]; read-out: affinity at the NK-1 receptor) of 7.57.
In the case of CO[C@@H]1O[C@H](COCCCCCN)C[C@H](OCc2ccccc2)[C@H]1OCc1ccccc1 [III-10, Methyl 2,3-Di-O-benzyl-4-deoxy-6-O-(5-aminopentyl)-β-D-glucopyranoside], the “activity / affinity at SRIF receptors of AtT-20 cells” value [7] was “inactive” and the pIC50 [7, 11] was less than 5.00.
Compound CO[C@@H]1O[C@H](COCCCCCN)[C@@H](OCc2ccccc2)[C@H](OCc2c[nH]cn2)[C@H]1OCc1ccccc1 [IV-39, Methyl 2,4-di-O-benzyl-3-O-(4'-methylene-1H-imidazole)-6-O-(5'-aminopentyl)-β-D-glucopyranoside] has a pIC50 [7, 11] of 5.25 and a pIC50 [7, 12] of 5.25.
In the case of CC(=O)NCCCCCOC[C@H]1O[C@@H](OCCc2c[nH]c3ccccc23)[C@H](OCc2ccc3ccccc3c2)[C@@H](OCc2ccccc2)[C@@H]1OCc1ccccc1 [IV-92, (+)-2-(1H-indol-3-yl)ethyl-6-O-(N-acetyl-5-aminopentyl)-3,4-di-O-benzyl-2-O-(2-naphthyl)methyl-β-D-glucopyranoside], the “binding of the NK-1 receptor” value [6] was “did not bind the NK-1 receptors” and the pIC50 [6, 13] was 6.68.
Compound NCCCCCCOC[C@H]1O[C@@H](OCCc2c[nH]c3ccccc23)[C@H](OCc2ccccc2)C[C@@H]1OCc1ccccc1 [III-5b, 2-(1H-Indol-3-yl)ethyl 2,4-Di-O-benzyl-3-deoxy-6-O-(6-aminohexyl)-β-D-glucopyranoside] has a pIC50 [7, 11] of 5.15.
In the case of Fc1ccc(CO[C@H]2[C@H](OCCc3c[nH]c4ccccc34)O[C@H](COCc3ccc4ccccc4c3)[C@@H](OCc3ccccc3)[C@@H]2OCc2ccccc2)cc1 [IV-84, (+)-2-(1H-inclol-3-yl) ethyl-3, li-di-O-Benzyl 2-O-(4-fluorobenzyl)-B-D-glucopyranoside], the “binding of the NK-1 receptor” value [6] was “did not bind the NK-1 receptors”.
CO[C@@H]1O[C@H](COCCCCCN)[C@@H](OCc2ccccc2)[C@H](OCc2ccccc2)[C@H]1OCc1c[nH]cn1 [IV-30, Methyl 2-O-(4'-methylene-1H-imidazole)-3,4-di-O-benzyl-6-O-(5'-aminopentyl)-β-D-glucopyranoside] showed a pIC50 [7, 11] of less than 5.00.
With Fc1ccc(OC[C@H]2O[C@@H](OCCc3c[nH]c4ccccc34)[C@H](OCc3ccc4ccccc4c3)[C@@H](OCc3ccccc3)[C@@H]2OCc2ccccc2)cc1 [IV-81, (+)-2-(1H-indol-3-yl)ethyl-3,4-di-O-benzyl-6-O-(4-fluorophenyl)-2-O-(2-naphthyl)methyl-β-D-glucopyranoside] the “binding of the NK-1 receptor” value [6] was “did not bind the NK-1 receptors”.
In the case of NCCCCC(N)NC[C@H]1O[C@@H](OCCc2c[nH]c3ccccc23)[C@H](OCc2ccccc2)[C@@H](OCc2ccccc2)[C@@H]1OCc1ccccc1 (stereo partly drawn) [IV-42, 2-(1H-indol-3-yl)ethyl 2,3,4-tri-O-benzyl-6-N-(1',5'-diamino-pentyl)-β-D-glucopyranoside], the pKi [1] was 5.89, the “affinity at SSTR 3” value [2] was “submicromolar affinities” and the pKi ([2]; TABLE 3, read-out: hSSTR 3 Ki) was 6.22. The “affinity at SSTR 4” value [3] was “submicromolar affinities”, the pKi ([3]; TABLE 3, read-out: hSSTR 4 Ki) was 6.30 and the pKi ([4]; TABLE 3, read-out: hSSTR 1 Ki) was 5.68. The “affinity at SSTR 2” value [5] was “submicromolar affinities”, the pKi ([5]; TABLE 3, read-out: hSSTR 2 Ki) was 6.22 and the pKi ([8]; average over hSSTRs) was 6.00. The “activity / affinity at SRIF receptors of AtT-20 cells” value [7] was “did not result in an increase in affinity”, the “AtT-20 cells IC50” value ([7]; TABLE 2 (Example 106)) was “DNB” and the pIC50 [7, 14] was 4.89.
For NCCCCCOC[C@@H]1O[C@H](OCCc2c[nH]c3ccccc23)[C@H](OCc2ccccc2)[C@H](OCc2ccccc2)[C@H]1OCc1ccccc1 [IV-22, 2-(1H-Indol-3-yl)ethyl 2,3,4-tri-O-benzyl-6-O-(5'-aminopentyl)-β-L-mannopyranoside], the pKi ([2]; TABLE 3, read-out: hSSTR 3 Ki) was 5.48, the pKi ([3]; TABLE 3, read-out: hSSTR 4 Ki) was 5.72 and the “hSSTR subtype affinity profile” value [8] was “high affinities for hSSTR2 and hSSTR4 and a low affinity for SSTR1”.
CO[C@@H]1O[C@H](COCCCCCN)[C@@H](OCc2ccccc2)[C@H](OCc2ccccc2)[C@H]1OCc1ccccc1 [III-8a, Methyl 2,3,4-Tri-O-benzyl-6-O-(5-aminopentyl)-β-D-glucopyranoside] was tested, and the pKi [1] was 5.52, the pKi ([2]; TABLE 3, read-out: hSSTR 3 Ki) was 5.52 and the pKi ([3]; TABLE 3, read-out: hSSTR 4 Ki) was 5.70. For the same compound, the pKi ([4]; TABLE 3, read-out: hSSTR 1 Ki) was 5.62, the pKi ([5]; TABLE 3, read-out: hSSTR 2 Ki) was 5.34 and the “hSSTR subtype affinity profile” value [8] was “highest affinity for hSSTR4”. For the same compound, the pIC50 [7, 11] was 5.23, the pIC50 [7, 14] was 5.23 and the pIC50 [7, 12] was 5.23.
With NCCCCCOC[C@@H]1O[C@H](OCCc2c[nH]c3ccccc23)[C@@H](OCc2ccccc2)[C@H](OCc2ccccc2)[C@H]1OCc1ccccc1 [IV-11, 2-(1H-Indol-3-yl)ethyl 2,3,4-tri-O-benzyl-6-O-(5'-aminopentyl)-β-L-glucopyranoside] the pKi ([2]; TABLE 3, read-out: hSSTR 3 Ki) was 5.19, the pKi ([3]; TABLE 3, read-out: hSSTR 4 Ki) was 5.70 and the pIC50 [6, 13] was 6.82. For the same compound, the “hSSTR subtype affinity profile” value [8] was “high affinities for hSSTR2 and hSSTR4 and a low affinity for SSTR1; also recorded: higher relative affinity for SSTR5 and a lesser relative affinity for SSTR3”.
Fc1ccc(COC[C@H]2O[C@@H](OCCc3c[nH]c4ccccc34)[C@H](OCc3ccc4ccccc4c3)[C@@H](OCc3ccccc3)[C@@H]2OCc2ccccc2)cc1 [IV-79, (+)-2-(1H-indol-3-yl)ethyl-3,4-di-O-benzyl-6-O-(4-fluorobenzyl)-2-O-(2-naphthyl)methyl-β-D-glucopyranoside] was tested, and the “binding of the NK-1 receptor” value [6] was “did not bind the NK-1 receptors”.
Work on CC(C)[C@@H]1NC(=O)[C@H](CCCCN)NC(=O)[C@@H](Cc2c[nH]c3ccccc23)NC(=O)[C@H](Cc2ccc(O)cc2)NC(=O)[C@H](C)N(C)C(=O)[C@H](Cc2ccccc2)NC1=O [MK 678, reference compound] yielded a pIC50 ([9]; read-out: IC50) of 7.22.
Compound NCCCCCOC[C@H]1O[C@@H](OCCc2c[nH]c3ccccc23)[C@H](OCc2c[nH]cn2)C[C@@H]1OCc1ccccc1 [IV-60, 2-(1H-Indol-3-yl)ethyl 2-O-(4'-methylene-1H-imidazole)-3-deoxy-4-O-benzyl-6-O-(5'-aminopentyl)-β-D-glucopyranoside] has a pKi [1] of 5.40, a pKi ([2]; TABLE 3, read-out: hSSTR 3 Ki) of 5.21 and a pKi ([3]; TABLE 3, read-out: hSSTR 4 Ki) of 5.52. For the same compound, the pKi ([4]; TABLE 3, read-out: hSSTR 1 Ki) was 5.17, the pKi ([5]; TABLE 3, read-out: hSSTR 2 Ki) was 5.34 and the “hSSTR subtype affinity profile” value [8] was “atypically high affinity for hSSTR5”. The pIC50 [7, 14] was 5.39.
CO[C@@H]1O[C@H](CO)[C@@H](OCc2ccccc2)[C@H](OCc2ccccc2)[C@H]1OCc1ccccc1 [III-46] was tested, and the IC50 [9] was “does not bind” and the pIC50 [10] was 6.00.
Work on OC[C@@H]1C[C@H](OCc2ccccc2)[C@@H](OCc2ccccc2)[C@H](OCCc2c[nH]c3ccccc23)O1 [2-Indol-3-yl-ethyl-2,3,-di-O-benzyl-4-deoxy-β-D-glucopyranoside] yielded a pIC50 [10] of 6.40.
